Reference: patent US12128035B2, “Activating pyruvate kinase R” (Novo Nordisk Health Care AG, priority 2021, dated 2024)

Test system: 2,3-DPG blood levels
Assay: Phase 1 SAD/MAD: blood 2,3-DPG (LC-MS/MS) in healthy volunteers
Type: in vivo, human
Procedure: In this study, SAD/MAD cohorts are randomized (3 to 1) to receive Compound 1 or placebo (P). Compound 1 was evaluated first in 4 healthy SAD cohorts and 4 healthy MAD (14-day dosing period) cohorts. Based on the safety, and PK/PD profile from HS, Compound 1 is then evaluated in 1 SCD SAD cohort and 2 SCD MAD cohorts. Specifically, based on the safety and pharmacokinetic/pharmacodynamics (PK/PD) profile in healthy volunteer studies, Compound 1 is evaluated in patients (pts) with SCD, first in a single dose (SD or SAD) cohort and then in multiple-dose (MD or MAD) cohorts (14-day and 12-week). Safety assessments include AEs, vital signs, ECGs and laboratory parameters. PK/PD blood sampling was performed on Day 1 (SAD/MAD) and Day 14 (MAD) and up to 72 h after the last dose and at the end-of-study visit. PD parameters included 2,3-DPG, ATP, and p50 in all cohorts with additional PD studies (including oxygen scan) performed only in the SCD cohorts. PD parameters included 2,3-DPG, ATP, p50, RBC deformability with controlled deoxygenation and reoxygenation (Lorrca® oxygen scan) and varying osmolality (Lorrca® osmoscan)). To maintain study blind, pt identifiers were removed when needed.
In the SAD cohorts, the subjects' blood 2,3-DPG levels were measured periodically after dosing by a qualified LC-MS/MS method for the quantitation of 2,3-DPG in blood. Decreased 2,3-DPG blood levels were observed 6 hours following a single dose of Compound 1 at all dose levels (earlier timepoints were not collected). Maximum decreases in 2,3-DPG levels generally occurred ˜24 hours after the first dose with the reduction sustained ˜48-72 hr postdose. Table 15 reports the median percentage change in 2,3-DPG blood levels, relative to baseline, measured over time in healthy volunteers after a single dose of Compound 1 (200 mg, 400 mg, 700 mg, or 1000 mg) or placebo. Table 16 reports the mean percentage change in 2,3-DPG blood levels, relative to baseline, measured over time in healthy volunteers after a single dose of Compound 1 (200 mg, 400 mg, 700 mg, or 1000 mg). Accordingly, the median and mean reduction in the concentration of 2,3-DPG, relative to baseline, was at least about 30% at all dose levels tested 24 hours after administration of the single dose.
In the MAD cohorts, the subjects' blood 2,3-DPG levels were measured periodically after dosing by a qualified LC-MS/MS method for the quantitation of 2,3-DPG in blood. […] Table 18B reports the mean percentage change in 2,3-DPG blood levels, relative to baseline, measured over time after the first dose on days 1 and 14 in healthy volunteers who received daily doses of Compound 1 (100 mg BID, 200 mg BID, 300 mg BID, or 400 mg QD) for 14 days. Accordingly, the median and mean reduction in the concentration of 2,3-DPG, relative to baseline, was at least about 25% at all dose levels tested 24 hours after administration of the first dose on day 1 and at least about 40% at all dose levels tested 24 hours after administration of the first dose on day 14.
The following procedures are employed for the analysis of ATP and 2,3-DPG in human whole blood K2EDTA using a protein precipitation extraction procedure and analysis by LC-MS/MS.
The following procedures are used for sample extraction prior to analysis via LC-MS/MS. 15.0 μL of the calibration standards, quality controls, matrix blanks, and samples are aliquoted into a 96-well plate. 50.0 μL of the internal standard spiking solution is added to all samples on the plate, with the exception of the matrix blank samples; 50.0 μL of water is added to the matrix blank samples. Subsequently, 150 μL of water is added to all samples on the plate. The plate is then covered and agitated by vortex at high speed for ten minutes, after which 750 μL of methanol is added to all samples on the plate. The plate is covered and agitated by vortex for approximately 1 minute. The plate is then centrifuged at approximately 3500 RPM at approximately 4° C. for five minutes. […]

[1] = HV 100 mg BID, Day 1, 0 h after first daily dose
[2] = HV 100 mg BID, Day 1, 6 h after first daily dose
[3] = HV 100 mg BID, Day 1, 8 h after first daily dose
[4] = HV 100 mg BID, Day 1, 12 h after first daily dose
[5] = HV 100 mg BID, Day 1, 16 h after first daily dose
[6] = HV 100 mg BID, Day 1, 24 h after first daily dose
[7] = HV 100 mg BID, Day 14, 0 h after first daily dose
[8] = HV 100 mg BID, Day 14, 6 h after first daily dose
[9] = HV 100 mg BID, Day 14, 8 h after first daily dose
[10] = HV 100 mg BID, Day 14, 12 h after first daily dose
[11] = HV 100 mg BID, Day 14, 16 h after first daily dose
[12] = HV 100 mg BID, Day 14, 24 h after first daily dose
[13] = HV 100 mg BID, Day 14, 48 h after first daily dose
[14] = HV 100 mg BID, Day 14, 72 h after first daily dose
[15] = HV 200 mg BID, Day 1, 0 h after first daily dose
[16] = HV 200 mg BID, Day 1, 6 h after first daily dose
[17] = HV 200 mg BID, Day 1, 8 h after first daily dose
[18] = HV 200 mg BID, Day 1, 12 h after first daily dose
[19] = HV 200 mg BID, Day 1, 16 h after first daily dose
[20] = HV 200 mg BID, Day 1, 24 h after first daily dose
[21] = HV 200 mg BID, Day 14, 0 h after first daily dose
[22] = HV 200 mg BID, Day 14, 6 h after first daily dose
[23] = HV 200 mg BID, Day 14, 8 h after first daily dose
[24] = HV 200 mg BID, Day 14, 12 h after first daily dose
[25] = HV 200 mg BID, Day 14, 16 h after first daily dose
[26] = HV 200 mg BID, Day 14, 24 h after first daily dose
[27] = HV 200 mg BID, Day 14, 48 h after first daily dose
[28] = HV 200 mg BID, Day 14, 72 h after first daily dose
[29] = HV 300 mg BID, Day 1, 0 h after first daily dose
[30] = HV 300 mg BID, Day 1, 6 h after first daily dose
[31] = HV 300 mg BID, Day 1, 8 h after first daily dose
[32] = HV 300 mg BID, Day 1, 12 h after first daily dose
[33] = HV 300 mg BID, Day 1, 16 h after first daily dose
[34] = HV 300 mg BID, Day 1, 24 h after first daily dose
[35] = HV 300 mg BID, Day 14, 0 h after first daily dose
[36] = HV 300 mg BID, Day 14, 8 h after first daily dose
[37] = HV 300 mg BID, Day 14, 12 h after first daily dose
[38] = HV 300 mg BID, Day 14, 16 h after first daily dose
[39] = HV 300 mg BID, Day 14, 24 h after first daily dose
[40] = HV 300 mg BID, Day 14, 48 h after first daily dose
[41] = HV 300 mg BID, Day 14, 72 h after first daily dose
[42] = HV 400 mg QD, Day 1, 0 h after first daily dose
[43] = HV 400 mg QD, Day 1, 8 h after first daily dose
[44] = HV 400 mg QD, Day 1, 12 h after first daily dose
[45] = HV 400 mg QD, Day 1, 16 h after first daily dose
[46] = HV 400 mg QD, Day 1, 24 h after first daily dose
[47] = HV 400 mg QD, Day 14, 0 h after first daily dose

O=C([C@H](CO)c1ccccc1)N1CC2=C(C1)CN(S(=O)(=O)c1cnc3c(c1)OCCO3)C2 (single isomer, unassigned) [Compound 1]
Mean Percentage Change in 2,3-DPG Levels [1]: 0%
Median Percentage Change in 2,3-DPG Levels [1]: 0.0%
Mean Percentage Change in 2,3-DPG Levels [2]: −15%
Median Percentage Change in 2,3-DPG Levels [2]: −16%
Mean Percentage Change in 2,3-DPG Levels [3]: −13%
Median Percentage Change in 2,3-DPG Levels [3]: −12%
Mean Percentage Change in 2,3-DPG Levels [4]: −18%
Median Percentage Change in 2,3-DPG Levels [4]: −18%
Mean Percentage Change in 2,3-DPG Levels [5]: −20%
Median Percentage Change in 2,3-DPG Levels [5]: −18%
Mean Percentage Change in 2,3-DPG Levels [6]: −29%
Median Percentage Change in 2,3-DPG Levels [6]: −28%
Mean Percentage Change in 2,3-DPG Levels [7]: −43%
Median Percentage Change in 2,3-DPG Levels [7]: −42.0%
Mean Percentage Change in 2,3-DPG Levels [8]: −44%
Median Percentage Change in 2,3-DPG Levels [8]: −44%
Mean Percentage Change in 2,3-DPG Levels [9]: −45%
Median Percentage Change in 2,3-DPG Levels [9]: −45%
Mean Percentage Change in 2,3-DPG Levels [10]: −44%
Median Percentage Change in 2,3-DPG Levels [10]: −44%
Mean Percentage Change in 2,3-DPG Levels [11]: −42%
Median Percentage Change in 2,3-DPG Levels [11]: −44%
Mean Percentage Change in 2,3-DPG Levels [12]: −43%
Median Percentage Change in 2,3-DPG Levels [12]: −44%
Mean Percentage Change in 2,3-DPG Levels [13]: −32%
Median Percentage Change in 2,3-DPG Levels [13]: −35%
Mean Percentage Change in 2,3-DPG Levels [14]: −22%
Median Percentage Change in 2,3-DPG Levels [14]: −20%
Mean Percentage Change in 2,3-DPG Levels [15]: 0%
Median Percentage Change in 2,3-DPG Levels [15]: 0.0%
Mean Percentage Change in 2,3-DPG Levels [16]: −16%
Median Percentage Change in 2,3-DPG Levels [16]: −13%
Mean Percentage Change in 2,3-DPG Levels [17]: −19%
Median Percentage Change in 2,3-DPG Levels [17]: −22%
Mean Percentage Change in 2,3-DPG Levels [18]: −22%
Median Percentage Change in 2,3-DPG Levels [18]: −23%
Mean Percentage Change in 2,3-DPG Levels [19]: −33%
Median Percentage Change in 2,3-DPG Levels [19]: −34%
Mean Percentage Change in 2,3-DPG Levels [20]: −45%
Median Percentage Change in 2,3-DPG Levels [20]: −48%
Mean Percentage Change in 2,3-DPG Levels [21]: −49%
Median Percentage Change in 2,3-DPG Levels [21]: −49%
Mean Percentage Change in 2,3-DPG Levels [22]: −49%
Median Percentage Change in 2,3-DPG Levels [22]: −49%
Mean Percentage Change in 2,3-DPG Levels [23]: −47%
Median Percentage Change in 2,3-DPG Levels [23]: −44%
Mean Percentage Change in 2,3-DPG Levels [24]: −43%
Median Percentage Change in 2,3-DPG Levels [24]: −42%
Mean Percentage Change in 2,3-DPG Levels [25]: −49%
Median Percentage Change in 2,3-DPG Levels [25]: −43%
Mean Percentage Change in 2,3-DPG Levels [26]: −47%
Median Percentage Change in 2,3-DPG Levels [26]: −48%
Mean Percentage Change in 2,3-DPG Levels [27]: −40%
Median Percentage Change in 2,3-DPG Levels [27]: −39%
Mean Percentage Change in 2,3-DPG Levels [28]: −23%
Median Percentage Change in 2,3-DPG Levels [28]: −20%
Mean Percentage Change in 2,3-DPG Levels [29]: 0%
Median Percentage Change in 2,3-DPG Levels [29]: 0.0%
Mean Percentage Change in 2,3-DPG Levels [30]: −20%
Median Percentage Change in 2,3-DPG Levels [30]: −19%
Mean Percentage Change in 2,3-DPG Levels [31]: −22%
Median Percentage Change in 2,3-DPG Levels [31]: −24%
Mean Percentage Change in 2,3-DPG Levels [32]: −31%
Median Percentage Change in 2,3-DPG Levels [32]: −32%
Mean Percentage Change in 2,3-DPG Levels [33]: −39%
Median Percentage Change in 2,3-DPG Levels [33]: −41%
Mean Percentage Change in 2,3-DPG Levels [34]: −47%
Median Percentage Change in 2,3-DPG Levels [34]: −51%
Mean Percentage Change in 2,3-DPG Levels [35]: −57%
Median Percentage Change in 2,3-DPG Levels [35]: −59%
Mean Percentage Change in 2,3-DPG Levels (HV 300 mg BID, Day 14, 6 h after first daily dose): −56%
Mean Percentage Change in 2,3-DPG Levels [36]: −55%
Median Percentage Change in 2,3-DPG Levels [36]: −55%
Mean Percentage Change in 2,3-DPG Levels [37]: −54%
Median Percentage Change in 2,3-DPG Levels [37]: −55%
Mean Percentage Change in 2,3-DPG Levels [38]: −53%
Median Percentage Change in 2,3-DPG Levels [38]: −52%
Mean Percentage Change in 2,3-DPG Levels [39]: −52%
Median Percentage Change in 2,3-DPG Levels [39]: −53%
Mean Percentage Change in 2,3-DPG Levels [40]: −43%
Median Percentage Change in 2,3-DPG Levels [40]: −45%
Mean Percentage Change in 2,3-DPG Levels [41]: −34%
Median Percentage Change in 2,3-DPG Levels [41]: −33%
Mean Percentage Change in 2,3-DPG Levels [42]: 0%
Median Percentage Change in 2,3-DPG Levels [42]: 0.0%
Mean Percentage Change in 2,3-DPG Levels (HV 400 mg QD, Day 1, 6 h after first daily dose): −26%
Mean Percentage Change in 2,3-DPG Levels [43]: −29%
Median Percentage Change in 2,3-DPG Levels [43]: −27%
Mean Percentage Change in 2,3-DPG Levels [44]: −38%
Median Percentage Change in 2,3-DPG Levels [44]: −38%
Mean Percentage Change in 2,3-DPG Levels [45]: −42%
Median Percentage Change in 2,3-DPG Levels [45]: −41%
Mean Percentage Change in 2,3-DPG Levels [46]: −48%
Median Percentage Change in 2,3-DPG Levels [46]: −48%
Mean Percentage Change in 2,3-DPG Levels [47]: −52%
Median Percentage Change in 2,3-DPG Levels [47]: −51%
Mean Percentage Change in 2,3-DPG Levels (HV 400 mg QD, Day 14, 6 h after first daily dose): −54%
